# Patent US20240174692A1, “PYRIMIDINE AROMATIC RING COMPOUNDS” (Medshine Discovery Inc., priority 2021, published 2024)
# Key:
# [1] = Pharmacokinetic evaluation of compounds in mice; type: in vivo, CD-1 mice; conditions: CD-1 male mice
# Procedure: Purpose of assay: To assay the pharmacokinetic data of the compounds in CD-1 mice in vivo.
# (§1) Compounds were mixed with vehicle 5% DMSO/95% (10% HP-β-CD aqueous solution), and the mixture was vortexed and sonicated to give 0.2 mg/mL-0.3 mg/mL clear solutions. CD-1 male mice aged 7 to 10 weeks were selected, and the candidate compound solution was administered intravenously. Whole blood was collected for a certain period of time to prepare the plasma. The drug concentration was analyzed by LC-MS/MS method and pharmacokinetic parameters were calculated by Phoenix WinNonlin software (Pharsight, USA).
# as §1, with “in water),” for “aqueous solution),”, “1.6 mg/mL to 4.0” for “0.2 mg/mL-0.3”, “orally administered.” for “administered intravenously.”, “prepare” for “prepare the”, “method,” for “method”
# [2] = test system: human colon cancer GP2D xenograft tumor; assay: In vivo pharmacodynamic study, GP2D xenograft tumor model in Balb/c nude mouse; conditions: PO
# Procedure: An xenograft tumor model in GP2D Balb/c nude mouse:
# Assay method: A Balb/c nude mouse model of subcutaneously xenograft tumor of human colon cancer GP2D cells was established. 0.2 mL (2×10^6) of GP2D cells (Matrigel was added, and volume ratio was 1:1) were inoculated subcutaneously on the right back of each mouse. When the average tumor volume reached 149 mm^3, the administration was started by group, with 6 mice in each group. On the day of the assay, the animals were administered the corresponding drugs according to the corresponding groups. The first group G1 was set as a negative control group, which was given 5% DMSO+95%(10% HP-β-CD) alone by gavage administration. The second group G2 to the fifth group G5 were given compound 014, and the dosage and protocol of administration were shown in Table 19.
# During the assay, the body weight of animals and the tumor size were measured twice a week. Meanwhile, clinical symptoms of animals were observed and recorded every day. Each administration was referenced to the most recent body weight of animals.
# The length (a) and width (b) of a tumor were measured with a digital vernier caliper. The calculation formula of tumor volume (TV) was: TV=a×b^2/2.
compound,measurement,setting,value
C#Cc1c(F)ccc2cc(N)cc(-c3ccc4c(N5CC6CCC(C5)N6)nc(OC[C@@]56CCCN5C[C@H](F)C6)nc4c3F)c12 [Compound 014],AUCu,"[1]; PO, 16.0 mg/kg, AUCu = AUC0-inf *Unbound PPB (Mouse)",0.0671 µM·h
same,AUC(0-inf),"[1]; mouse, plasma, IV, 1.28 mg/kg",0.565 µM·h
same,C0,"[1]; mouse, plasma, IV, 1.28 mg/kg",953 nM
same,Vd,"[1]; mouse, plasma, IV, 1.28 mg/kg",25.6 L/kg
same,clearance,"[1]; mouse, plasma, IV, 1.28 mg/kg",77 mL/min/kg
same,half-life,"[1]; mouse, plasma, IV, 1.28 mg/kg",5.7 h
same,AUC(0-inf),"[1]; mouse, plasma, PO, 16.0 mg/kg",1.49 µM·h
same,Cmax,"[1]; mouse, plasma, PO, 16.0 mg/kg",524 nM
same,bioavailability,"[1]; mouse, plasma, PO, 16.0 mg/kg",20.5%
same,half-life,"[1]; mouse, plasma, PO, 16.0 mg/kg",6 h
same,Tumor volume inhibition rate TGI,"[2]; G2, 25 mg/kg, BID*22, at day 14",84.2%
same,Tumor volume inhibition rate TGI,"[2]; G3, 50 mg/kg, BID*22, at day 14",89.4%
same,Tumor volume inhibition rate TGI,"[2]; G4, 150 mg/kg, BID*22, at day 14",97.3%
same,Tumor volume inhibition rate TGI,"[2]; G5, 150 mg/kg, QD*22",91.4%
